The text below walks through data of article PMC7308271, “Discovery of a new class of orthosteric antagonists with nanomolar potency at extrasynaptic GABAA receptors” (Scientific Reports, 2020).

pIC50: −log10 of the molar value. A value given as a limit tells only on which side of the number the result lay.

Test [1] concerns tonic currents in dentate gyrus granule cells. The following applies: rat slice recordings, cited from earlier work.
Test [2] concerns the target T1, human BGT1 (Homo sapiens, UniProt P48065).
T1 construct: expressed in transfected cells; host or cells: δ-HEK cells, transient transfection (pcDNA5/FRT)
T1 sequence (P48065 1-614): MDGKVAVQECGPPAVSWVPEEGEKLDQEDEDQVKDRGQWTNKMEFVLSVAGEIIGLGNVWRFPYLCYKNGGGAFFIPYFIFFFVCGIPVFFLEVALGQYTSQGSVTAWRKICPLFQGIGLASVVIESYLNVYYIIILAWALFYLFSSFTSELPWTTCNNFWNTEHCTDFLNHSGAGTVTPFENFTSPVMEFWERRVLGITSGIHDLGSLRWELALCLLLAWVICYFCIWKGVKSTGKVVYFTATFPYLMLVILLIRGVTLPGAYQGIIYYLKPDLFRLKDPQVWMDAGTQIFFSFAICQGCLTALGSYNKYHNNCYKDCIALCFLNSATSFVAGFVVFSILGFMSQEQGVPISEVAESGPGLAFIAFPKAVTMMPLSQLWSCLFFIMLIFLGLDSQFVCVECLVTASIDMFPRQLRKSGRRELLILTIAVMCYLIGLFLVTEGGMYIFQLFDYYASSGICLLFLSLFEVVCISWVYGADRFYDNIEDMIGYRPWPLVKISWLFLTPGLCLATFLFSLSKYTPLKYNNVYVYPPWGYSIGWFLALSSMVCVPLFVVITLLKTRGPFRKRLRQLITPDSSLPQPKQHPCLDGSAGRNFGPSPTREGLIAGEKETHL
As to the kind of experiment: Fluorescence interference control: BGT1-mediated GABA uptake in the FMP assay. Format: cell-based. The following applies: 110 μM GABA uptake by BGT1 in δ-HEK cells; 2027 at 30, 10, 3 μM. The source says: (§1) To express recombinant GABAΑ receptors human α1, α2, α3, α5, α6, β2, γ2 (pcDNA3.1/Zeo) and α4, β1 (pUNIV)[26] subunit cDNA were transiently transfected into either δ-HEK or HEK background cells. δ-HEK cells were transfected with α- and β-subunits in a 1:1 ration whereas HEK background cells were transfected with α-, β- and γ-subunits in a 1:1:2 ratio. Human BGT1 (pcDNA5/FRT)[43] was transiently transfected into the δ-HEK cell line. δ-HEK cells transfected for whole-cell patch-clamp recordings were co-transfected with green fluorescent protein (GFP) as well as α- and β-subunits in a 0.5:1:1 ratio (0.8 μg + 1.6 μg + 1.6 μg in a 6 cm dish) in order to identify transfected cells. The transfection was carried out using Polyfect as transfection reagent according to the manufactures protocol expect for using half the recommended volume of Polyfect.
assay (perf ormed essentially as previously described in methods section and based on Al-Khawaja et al.).
in d-HEK cells was not decreased/quenched by 2027 in any of the tested concentrations. Data are shown as
means ± SD f rom a representative expe riment perf orme d in triplicate (n=2).
BGT1 expressed in HEK-δ cells

Test [3] deals with T2, human α4β1δ GABAΑ receptor (Homo sapiens, UniProt P18505+P48169).
T2 construct: expressed in transfected cells; host or cells: δ-HEK (HEK293 Flp-In stably expressing human δ), transiently transfected with α4 and β1 1:1
T2 sequence (P48169 36-554): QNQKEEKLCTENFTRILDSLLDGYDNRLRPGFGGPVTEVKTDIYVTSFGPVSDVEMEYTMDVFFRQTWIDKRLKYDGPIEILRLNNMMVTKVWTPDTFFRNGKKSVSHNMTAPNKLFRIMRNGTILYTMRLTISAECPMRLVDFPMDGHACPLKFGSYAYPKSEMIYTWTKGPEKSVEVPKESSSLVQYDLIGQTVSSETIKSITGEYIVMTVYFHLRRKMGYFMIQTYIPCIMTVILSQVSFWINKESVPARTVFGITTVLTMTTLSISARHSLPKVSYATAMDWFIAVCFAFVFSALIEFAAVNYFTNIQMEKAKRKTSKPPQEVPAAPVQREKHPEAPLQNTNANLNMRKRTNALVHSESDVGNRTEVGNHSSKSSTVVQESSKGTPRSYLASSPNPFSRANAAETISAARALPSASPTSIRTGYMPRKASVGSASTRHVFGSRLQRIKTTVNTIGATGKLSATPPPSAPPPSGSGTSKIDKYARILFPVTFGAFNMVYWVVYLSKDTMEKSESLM
T2 sequence (P18505 26-474): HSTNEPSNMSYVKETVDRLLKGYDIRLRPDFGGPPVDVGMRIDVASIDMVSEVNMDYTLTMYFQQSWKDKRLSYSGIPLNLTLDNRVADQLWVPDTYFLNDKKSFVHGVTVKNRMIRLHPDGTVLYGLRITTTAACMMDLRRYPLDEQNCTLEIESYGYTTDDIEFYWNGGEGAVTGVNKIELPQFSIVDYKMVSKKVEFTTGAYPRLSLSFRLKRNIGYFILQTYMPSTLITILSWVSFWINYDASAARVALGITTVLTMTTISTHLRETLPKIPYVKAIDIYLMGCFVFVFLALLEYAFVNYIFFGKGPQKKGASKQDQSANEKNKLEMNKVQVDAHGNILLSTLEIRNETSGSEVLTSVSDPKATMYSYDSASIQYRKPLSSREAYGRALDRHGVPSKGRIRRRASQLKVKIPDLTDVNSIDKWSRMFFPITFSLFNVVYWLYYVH
T2 sequence (O14764 25-452 partner): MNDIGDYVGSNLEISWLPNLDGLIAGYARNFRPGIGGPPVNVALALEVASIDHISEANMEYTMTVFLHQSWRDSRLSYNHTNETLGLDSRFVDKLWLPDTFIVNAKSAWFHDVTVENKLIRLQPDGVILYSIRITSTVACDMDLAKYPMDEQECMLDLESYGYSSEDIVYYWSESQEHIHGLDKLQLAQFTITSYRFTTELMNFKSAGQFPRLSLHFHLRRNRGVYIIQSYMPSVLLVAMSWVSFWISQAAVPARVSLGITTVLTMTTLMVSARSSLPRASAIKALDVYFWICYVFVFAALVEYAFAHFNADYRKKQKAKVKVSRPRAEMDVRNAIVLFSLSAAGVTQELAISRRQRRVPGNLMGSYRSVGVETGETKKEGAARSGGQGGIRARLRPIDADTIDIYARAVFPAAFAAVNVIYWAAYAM
As to the kind of experiment: FMP assay at α4β1δ GABAA receptors in HEK cells (screening, concentration-inhibition, Schild analysis). Format: cell-based. The following applies: HEK293, read-out: inhibition of the GABA EC80 signal, primary screening, 10 μM, singlicates.
Description: We have previously established a FLIPR membrane potential (FMP) assay to study recombinant δ-containing GABAΑRs entailing a HEK293 Flp-In cell line stably expressing the human δ-subunit which is suitable for co-transfection with any desired α/β subunits. Initially, we validated the applicability of the FMP assay for efficient compound screening in 96-well microtiter plates using the human α4β1δ GABAΑR heterologously expressed in HEK cells. This receptor was chosen as we have previously shown this system to be reliable in expressing δ-containing receptors. To this end, we determined the Z′-factor, which is a statistical factor used to measure the suitability of an assay for high throughput screening.
Thus, we went on to further characterize 2027 by making a full concentration-inhibition curve.
HEK293 cells were maintained in DMEM containing GlutaMAX-I, supplemented with 10% FBS and 1% penicillin-streptomycin and incubated at 37 °C and a humidity of 5% CO2. For expression of δ-containing GABAΑ receptors, a HEK293 Flp-In^ΤΜ cell line stably expressing the human GABAΑ δ-subunits (referred to as δ-HEK) was used and the γ-containing subtypes was expressed in a background HEK293 Flp-In^ΤΜ cell line stably expressing the G-protein coupled peptide receptor NPBWR2 (referred to as HEK background)[26], both positively selected for using 200 μg/mL hygromycin B. α1β2γ2 receptors were stably expressed in a HEK293 cell line maintained as above but with no selection (gift from Marianne L. Jensen, Neurosearch).
as §1
The FMP assay was performed as previously described with a few modifications. Briefly, HEK cells were transfected as described[26] and 16–20 hours later plated (50,000 cells/well in DMEM medium) into clear-bottomed black 96-well plates coated with poly-D-lysine and the assay performed 20–28 hours later. The assay protocol including the FMP blue dye incorporation into membranes was exactly as described in Falk-Petersen et al.[26]. […] Data was obtained as changes in fluorescence units (∆RFU) by measuring emission at 560 nm caused by excitation at 530 nm. Unless otherwise mentioned in the text or figure legends experiments were performed in at least three independent experiments each using three technical replicates.
Data obtained in the FMP assay are given as relative changes in fluorescence units (ΔRFU) by subtracting the average of the baseline fluorescence signal from the peak fluorescence signal after compound addition. All raw traces were inspected manually and peak signals resulting from compound/buffer addition together with signal artefacts were omitted from the analysis.
The concentration-response curves obtained in the FMP assay for both agonists (determining EC50 values) and antagonists (determining IC50 values) were fitted using the four-parameter concentration-response model: Response=bottom+top−bottom/1+10^[(logEC50-A)⋅nH] EC/IC50 values describe the concentration resulting in the half-maximal response (halfway between top and bottom), and nΗ is the Hill coefficient.

In the case of `Oc1noc(C2CCNCC2)c1CCC(c1ccccc1)c1ccccc1` [DPP-4-PIOL], in test [1] (read-out: IC50 inhibiting tonic currents), the pIC50 is 9.06. Also, the “potency in inhibiting tonic over phasic currents” value in test [1] is reported as “approximately 20 times”.
Consider `COc1ccc(-c2ccc(=N)n(CCCC(=O)O)n2)cc1` [Gabazine, reference compound], for which the “interference with / quenching of the fluorescence signal” value in test [2] is “do not interfere”.
Consider `COc1ccccc1NC(=O)C1CCN(Cc2ccco2)CC1` [compound 2100, 1-(furan-2-ylmethyl)-N-(2-methoxyphenyl)piperidine-4-carboxamide], for which the inhibition at 10 µM in test [3] is above 50%.
